{"source": "patent US12409172B2", "about": "“Dosage regimen” (UNION therapeutics A/S, priority 2023, dated 2025)", "key": {"CYP3A4": {"molecular_target": "T1, CYP3A4 (Homo sapiens, UniProt P08684)", "T1 construct": "from tissue; host or cells: human subjects in vivo (clinical studies); no organ is named", "T1 sequence (P08684 whole entry)": "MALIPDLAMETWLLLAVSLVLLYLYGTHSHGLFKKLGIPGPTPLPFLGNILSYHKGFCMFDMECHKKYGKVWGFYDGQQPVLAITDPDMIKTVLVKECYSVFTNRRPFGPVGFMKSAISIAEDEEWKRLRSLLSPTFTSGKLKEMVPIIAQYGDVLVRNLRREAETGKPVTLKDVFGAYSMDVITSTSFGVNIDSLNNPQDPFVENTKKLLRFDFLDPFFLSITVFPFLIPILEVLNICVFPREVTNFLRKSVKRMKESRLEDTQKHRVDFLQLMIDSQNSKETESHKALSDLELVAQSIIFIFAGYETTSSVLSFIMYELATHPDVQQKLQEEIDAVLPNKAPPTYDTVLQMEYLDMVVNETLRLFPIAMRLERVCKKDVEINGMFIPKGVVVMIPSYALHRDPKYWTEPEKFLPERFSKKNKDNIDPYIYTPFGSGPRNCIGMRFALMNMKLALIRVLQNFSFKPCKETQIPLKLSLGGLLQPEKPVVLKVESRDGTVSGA", "experiment": "CYP3A4 inhibition from clinical studies", "assay_type": "in vivo", "source_text": "Patients receiving orismilast concurrently with these medicinal • products should be monitored for related AEs, especially if they have a narrow therapeutic window."}, "[1]": {"experiment": "Population pharmacokinetics (popPK) model for orismilast", "set-up": "species or system human", "experimental": "All subjects were treated with orismilast as IR capsule, IR solution, IR tablet or MR tablet with available PK samples. Although the modified release tablet was the formulation selected for further studies, the popPK model was also built using the immediate release formulations (IR solution, IR tablet and IR capsule), especially to obtain stable estimates of elimination parameters (clearances) across formulations and obtain a robust model to support the simulation.\nPopPK parameters were estimated by non-linear mixed effect modelling using MONOLIX. Mixed effects models describe the influence of both fixed effects and random effects. The random effects are typically used to capture the variability which can be split in residual variability (error) and between-subject variability.\nThe population model was defined by 4 components: • 1. The structural popPK model components, which defines the PK parameters and describe the plasma concentration-time profiles of orismilast. • 2. The inter-individual random effect model component, which describes the inter-individual variation (IIV) and inter-occasion variation (IOV) in PK parameters after correction for fixed effects. • 3. The residual error (or random effect) model component, which describes the underlying distribution of the error in the measured concentrations. • 4. The covariate model component, which describes the influence of fixed effects (i.e., demographic factors) on PK parameters.\nThe search for the final model followed the following stepwise strategy: • 1. Selection of the simplest structural model, which predicts the plasma concentration as a function of time and dose, based on smallest objective function (OF) and by the pattern in the residual plots. The best structural model, the most appropriate.IIV and IOV models, and the residual error model, were identified. The structural model was determined using the rich Phase I data from healthy volunteers (LP0058-S01, LP0058-1005, LP0058-1114, LP0058-1362, LP0058-1324 and LP0058-1442). • 2. Preliminary visual check using predictive check approach was applied to sparse data from psoriasis patients (study LP0058-1072) to assess the predictability capacities of the structural model for patient data. • 3. Psoriasis patient data were included in the model and the model was refined or adjusted if necessary. • 4. Graphical exploration of the covariates: between individual covariates and EBE of parameter or random effects. • 5. Determination of the covariate model. • 6. Selection of significant covariates to obtain the FINAL model. • 7. Inclusion of new studies in the model (e.g. UN1500001-203 and CIB1353A101) was performed by repeating steps 2 to 6.\nThe pre-specified covariates that were suspected a priori of having an influence on PK parameters, were included in the full model and the selection of the final model with relevant covariates were based on the statistical Wald test (keep covariates with p-value <0.05). The influence of body weight on PK parameters was included using fixed standard allometric scales.\nThe model was evaluated using diagnostic and goodness of fit plots and validated using Visual Predictive Checks. SAS® software V9.4 and Monolix Suite version 2021R1 release were used.\nThe structural model was parameterised in terms of apparent clearance (CL/F), volume of distribution of central compartment (V1/F), inter-compartmental clearance (Q/F) and volume of distribution for peripheral compartment (V2/F). The absorption was described by a 1st—order rate constant (ka1) for first absorption process, 1st—order rate constant (ka2) for second absorption process, fraction of dose absorbed through the first process (F1) and lag time (tlag2) for the start of the second phase. The relative bioavailability was also added to characterize the difference between the formulations, it was set to 1 for the IR solution, so, the other formulations were expressed relatively to the IR solution. […]"}}, "note": "Where “and” joins values, the source holds several entries; their conditions need not be identical. Equal values may be shown once.", "data": [{"smiles": "O=C(Cc1c(Cl)c[n+]([O-])cc1Cl)c1ccc(OC(F)F)c2c1OC1(CCS(=O)(=O)CC1)O2", "note": "[orismilast, 2-(3,5-dichloro-1-oxidopyridin-1-ium-4-yl)-1-[7-(difluoromethoxy)-1′,1′-dioxospiro[1,3-benzodioxole-2,4′-thiane]-4-yl]ethanone]", "values": [{"measurement": "inhibition of CYP3A4", "setting": "CYP3A4", "value": "weak inhibitor"}, {"measurement": "variability of the central PK parameters", "setting": "[1]", "value": "27% and 34%"}, {"measurement": "AUClast GM ratio (popPK/NCA)", "setting": "[1]; 1442 - Part 1 (MR, 30 mg)", "value": 1.03}, {"measurement": "AUClast GM ratio (popPK/NCA)", "setting": "[1]; 1442 - Part 2 (Fast, 30 mg)", "value": 1.14}, {"measurement": "AUClast GM ratio (popPK/NCA)", "setting": "[1]; 1442 - Part 3 (D1 = 10 mg)", "value": 0.98}, {"measurement": "AUClast GM ratio (popPK/NCA)", "setting": "[1]; 1442 - Part 3 (D17 = 60 mg)", "value": 0.97}, {"measurement": "AUClast GM ratio (popPK/NCA)", "setting": "[1]; CIBI3S3A101 (D1 = 10 mg)", "value": 0.98}, {"measurement": "variability of Q/F", "setting": "[1]; peripheral compartment", "value": 383, "unit": "%"}, {"measurement": "variability of V2/F", "setting": "[1]; peripheral compartment", "value": 495, "unit": "%"}]}]}
